How the values were obtained:
[1] = system: Letal mRNA in A2008 ovarian carcinoma cell line; assay: Letal mRNA expression in treated A2008 cells, real-time quantitative RT-PCR (TaqMan); assay type: cell-based, human
Protocol: Quantification of Letal by real-time quantitative RT-PCR. Letal expression was analyzed by TaqMan analysis as previously described (Garcia et al, FASEB J 15(10):1819-1821 (2001)). The Letal system consisted of the primers: Letal.F, 5′-[…]-3′ (SEQ ID NO:13); Letal.R, 5′-[…]-3′ (SEQ ID NO:14), and the probe Letal.P, 5′-(FAM)[…] (SEQ ID NO:15) (TAMRA)-3′. The cDNA load was normalized to human GAPDH with primers GAPDH F: 5′-[…]-3′ (SEQ ID NO:16) and GAPDH R: 5′[…]-3′ (SEQ ID NO:17) and the probe GAPDH.P: 5′(FAM) […] (TAMRA)-3′ (SEQ ID NO:18).
Tissues, cell lines and purification of cells. Normal human tissues were obtained from the Cooperative Human Tissue Network (Zhang et al, N. Engl. J. Med. 348(3):203-213 (2003)). A2008 ovarian carcinoma cell line was treated for 24 h with serum-free medium (control) or serum-free medium containing either 10 U/ml interleukin (IL)-1β, 10 ng/ml tumor necrosis factor (TNF-α), 40 ng/ml interferon (IFNγ), 0.5 μg/ml Lypopolyssaccaride (LPS), or 10 ng/ml TNF-α plus 40 ng/ml IFN-γ. 10 ng/ml PMA was kept for 4 hs and retinoic acid for 24, 48, and 72 hs. All the cytokines were from Peprotech (Rocky Hill, N.J.), except retinoic acid (Sigma, St Louis, Mo.). Additionally, cells were cultured in media without glucose for 48 hs or under hypoxia (1.5% O2) for 16 hs. Fresh peripheral blood lymphocytes were obtained by leukapheresis and elutriation. […]

[2] = system: NKG2D on peripheral CD8^+ T-cells; assay: NKG2D expression on CD8+ lymphocytes after co-culture with K32 aAPCs, flow cytometry; assay type: cell-based, human; details: peripheral CD8^+ T-cells co-cultured 4 days with K32 aAPCs; versus mock-transduced K32
Text: (§1) CD8^+ lymphocyte stimulation and cytokine release. To analyze the effects of Letal on the T-cell proliferation and production of cytokines, a previously described artificial antigen-presenting cell (aAPC) model was used (Maus et al, Nat. Biotechnol. 20(2):143-148 (2002)). Briefly, the system is based on the stable expression of the human low-affinity Fcγ receptor, CD32, on K562 cells (K32 cell line). K32 cell-based aAPCs were additionally transduced with Letal or with the empty vector as described above, irradiated with 100Gy, and washed twice with RPMI medium. Letal^+-K32 cells or mock transductants were loaded, when indicated, with anti-CD3 (OKT3), or anti-CD3 plus anti-CD28 (mAbs; 9.3) monoclonal antibodies at 0.5 μg/ml for 10 min at room temperature. Loaded &APCs were mixed with CD8^+ T-cells at a 1:2 ratio and the T-cell concentration was maintained at 0.5×10^6 cells/ml throughout the culture. Cultures were pulsed with 1 μCi of [^3H] thymidine from day 2 to day 5 and incorporated radioactivity was determined using a 1450 Microbeta scintillation counter (Wallac, Turku, Finland). The amounts of secreted IL-2 and IFNγ were determined by commercial ELISA, following the manufacturer's instructions (R & D Systems). Flow cytometry was performed with a FACScalibur (BD Biosciences, San Jose, Calif.). […]

[3] = system: peripheral CD8^+ T-cells; assay: CD8+ lymphocyte proliferation/expansion with K32 aAPCs ([3H] thymidine); assay type: cell-based, human; details: day 5; three independent experiments
Text: as §1

[4] = system: glucose transporter Glut-1 in peripheral CD8^+ T-cells; assay: Glut-1 expression in stimulated CD8+ T-cells, flow cytometry; assay type: cell-based, human; details: 20 hr stimulation
Text: CD8^+ lymphocyte stimulation, cytokine release and glucose metabolism analysis. To analyze the effects of Letal on the T-cell proliferation and production of cytokines, a previously described artificial antigen-presenting cell (aAPC) model was used (Maus et al, Nat. Biotechnol. 20:143-148 (2002)). Briefly, the system is based on the stable expression of the human low-affinity Fcγ receptor, CD32, on K562 cells (K32 cell line). K32 cell-based aAPCs were additionally transduced with Letal or with the empty vector as described above, irradiated with 100Gy, and washed twice with RPMI medium. […] Cultures were pulsed with 1 μCi of [^3H] thymidine from day 2 to day 5 and incorporated radioactivity was determined using a 1450 Microbeta scintillation counter (Wallac, Turku, Finland). The amounts of secreted IL-2 and IFN-γ were determined by commercial ELISA, following the manufacturer's instructions (R & D Systems). […]
Letal signaling increases glucose transporter expression and glucose uptake during T-cell activation. […] To test whether Letal may have a similar effect during T-cell activation, peripheral CD8^+ T-cells were stimulated for 20 hr with anti-CD3, anti-CD3/anti-CD28, anti-CD3/Letal, or Letal alone and the expression of the glucose transporter Glut-1 was analyzed by flow cytometry. […]

[5] = system: peripheral CD8^+ T-cells; assay: Glucose uptake with [3H]-2-deoxyglucose in stimulated CD8+ T-cells; assay type: cell-based, human; details: 20 hr stimulation
Text: as §1, with “stimulation, cytokine release” for “stimulation”, “glucose metabolism analysis.” for “cytokine release.”, “20:143-148” for “20(2):143-148”, “aAPCs” for “&APCs”, “IFN-γ” for “IFNγ”, “Systems).” for “Systems). Flow cytometry was performed with a FACScalibur (BD Biosciences, San Jose, Calif.).”
Glucose uptake rates were next measured with [^3H]-2-deoxyglucose in cells stimulated as described above. […]

[6] = system: peripheral CD8^+ T-cells; assay: Cisplatin-induced apoptosis of pre-stimulated CD8+ lymphocytes, annexin-V; assay type: cell-based, human; details: pre-stimulated 3 days; 50 μM cisplatin for 17 hr
Protocol: (§2) Apoptosis assay. The percentage of apoptotic cells was determined after 17 h incubation with 50 μM cisplatin or 18 hs exposure to 0.1 μg/ml anti-CD95 mAb (EOS9.1; Pharmingen) by using the TACS annexin-V apoptosis detection kit, according to the manufacturer's instructions (R & D Systems). Fas expression was determined by flow cytometry by using EOS9.1 as a primary Ab and a PE-labeled anti-mouse IgM (R6-60.2; Pharmingen) as a second Ab.
Cytotoxic chemotherapy can, however, deplete tumor-specific effector T-cells (Lee et al, Nat. Med. 5:677-685 (1999)). Because the glycolytic pathway is implicated in lymphocyte survival (Plas et al, Nat. Immunol. 3:515-521 (2002)), a determination was made as to whether Letal could protect T-cells from early apoptotic death induced by genotoxic drugs.

[7] = system: Fas on peripheral CD8^+ T-cells; assay: Fas expression on stimulated CD8+ T-cells, flow cytometry; assay type: cell-based, human; details: 4 days stimulation; compared to CD3/CD28 costimulated T-cells
Protocol: as §2
Letal engagement protects CD8^+ T-cells from FasL-induced apoptosis. […] Because ovarian carcinomas express FasL and other lymphocyte-depleting death ligands (Rabinowich et al, J. Clin. Invest. 101:2579-2588 (1998)), the prevalence of FasL expression and its impact on TILs was determined in 42 stage III ovarian carcinoma specimens. Strong FasL immunoreactivity was detected in tumor cells in areas of selected specimens (FIG. 10A), as well as in a proportion of stromal leukocytes. To test whether Letal promotes the generation of activated T-cell subpopulations that are able to resist the pro-apoptotic tumor microenvironment, peripheral CD8^+ T-cells were stimulated for 4 days with CD3/Letal, CD3/CD28, or anti-CD3 alone, and expression of Fas was measured by flow cytometry. […]

[8] = biological target: T1, Lymphocyte Effector cell Toxicity Activating Ligand (Letal) (human, UniProt Q8TD07 29-263); assay: flow cytometry, 3 µg/ml NKG2D/Fc on Letal-transduced K562 and SKOV3 cells, detected with anti-human IgG mAb
T1 construct: Expressed from the complete open reading frame by retroviral transduction on K562 and SKOV3 cells; also called ULBP4; RAET1E
T1 sequence: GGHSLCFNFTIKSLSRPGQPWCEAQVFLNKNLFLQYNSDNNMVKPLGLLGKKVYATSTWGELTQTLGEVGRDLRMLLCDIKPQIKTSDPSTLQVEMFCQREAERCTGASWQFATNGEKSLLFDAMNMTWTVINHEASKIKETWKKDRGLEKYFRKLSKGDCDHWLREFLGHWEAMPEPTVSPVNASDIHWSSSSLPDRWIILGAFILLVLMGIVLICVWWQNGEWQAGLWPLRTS
Text: Constructs and generation of antibodies. SKOV3 and K562 cells were transduced using retroviral vector MIGR1, generously provided by Warren Pear (University of Pennsylvania). Letal or mock transductants expressing equivalent levels of the green fluorescent protein were sorted and cultured by standard procedures. […] Anti-human IgG mAb (G18-145; Pharmingen, San Diego, Calif.) was used to detect the chimerical molecule.
Letal is a ligand of NKG2D expressed in a variety of normal tissues. […] Expression of the Letal protein was confirmed on transduced cells, but not on mocked transductants, by flow cytometry using serum of Letal-immunized mice (FIG. 1D). […] To evaluate the binding of NKG2D to transduced Letal, a recombinant soluble NKG2D-Fc fusion protein was used, containing the ectodomain of the immunoreceptor (Phe78 through Val216). […] Treatment with phospholipase C decreased binding of sNKG2D to Letal⁺ K562 cells, although binding was higher than to control cells.

`CC1=C(/C=C/C(C)=C/C=C/C(C)=C/C(=O)O)C(C)(C)CCC1` [retinoic acid] was tested, and the “decrease of Letal mRNA expression” value ([1]; maximum, after 72 hr stimulation) was 6 fold.

TNF-α was tested, and the “increase of basal Letal mRNA levels” value ([1]; TNF-α 10 ng/ml, 24 h) was 3 fold.

With “anti-CD3: anti-CD3 (OKT3) monoclonal antibody loaded on Letal^− K32 aAPCs [reference compound]” the “increase of NKG2D expression” value [2] was “same result than CD3/Letal stimulation”, the “fewer CD8^+ cells with CD3 stimulation in the absence of Letal” value [3] was 29% and the “cells with altered Glut-1 expression” value [4] was 11%. The glucose uptake rate [5] was “little to no effect”, the apoptosis after cisplatin [6] was “higher percentage of apoptotic cells” and the Fas expression [7] was “markedly higher”.

B1: recombinant human NKG2D/Fc chimera (R & D Systems) (Fc fusion, UniProt P26718 78-216, looked up)
chain: FLNSLFNQEVQIPLTESYCGPCPKNWICYKNNCYQFFDESKNWYESQASCMSQNASLLKVYSKEDQDLLKLVKSYHWMGLVHIPTNGSWQWEDGSILSPNLLTIIEMQKGDCALYASSFKGYIENCSTPNTYICMQRTV
notes: range 78-216; Bought reagent; also called NKG2D-Fc protein; recombinant soluble NKG2D-Fc fusion protein; Fc part of the bought chimera not given, detected with anti-human IgG mAb
B1: binds [8].
